Data: patent US9820951B2, “Pulmonary disease treatment and diagnosis based on Arhgef1” (NATIONAL JEWISH HEALTH, A NON-PROFIT ORGANIZATION, priority 2011, dated 2017)

Test system: MMP9
Assay: MMP9 production by human alveolar macrophages cultured on fibronectin (gelatin zymography)
Assay type: cell-based
Settings: PTA2 1.25, 6.25 and 25 μM, dose-dependent
From the text: FIG. 14. Human alveolar macrophages produce TXB2 when cultured on fibronectin and thromboxane receptor signaling is required for MMP9 production. A, TXB2 production measured in conditioned media from human macrophages cultured on fibronectin (closed bars) or plastic (open bars) at the indicated cellular concentrations. B, TXB2 measured in conditioned media from macrophages cultured at 0.125×10^6 cells/ml on either plastic (ctl) or FN from four individuals. The data represent the means±S.E. C, gelatin zymogram of conditioned media from cells cultured as indicated and in the presence of increasing doses of the thromboxane receptor antagonist PTA2 (at 1.25, 6.25, and 25 μM, respectively). Below the zymogram is quantitation of MMP9 activity by densitometric analysis.
Tissue-culture 96-well plates (Costar high binding catalogue number 3590) were coated with 10 μg/ml of murine fibronectin (Molecular Innovations, Nori, Minn.; catalogue number MFBN) or human fibronectin (Molecular Innovations; catalogue number HFBN) in DPBS without Ca^2+ or Mg^2+ (Mediatech, Inc., Manassas, Va.) for 2 h at room temperature. […] PGE2 and TXB2 were measured in conditioned medium by ELISA according to the manufacturer's instructions (ElisaTech, Aurora, Colo.). […]
For other human studies, we quantitated MMP9 by ELISA in conditioned medium (ELISA TECH, Aurora, Colo.). […]

CCCCC[C@@H](O)/C=C/[C@H]1C[C@H]2C[C@@H]([C@@H]1C/C=C\CCCC(=O)O)C2(C)C (relative stereo) [PTXA2, (18-(1alpha,2beta(Z),3alpha(1E,3S*),5alpha))-7-(3-(3-Hydroxy-1-octenyl)-6,6-dimethylbicyclo(3.1.1)hept-2-yl)-5-heptenoic acid]
inhibition of MMP9 production: ~90%
